What is called IC50 is the concentration that inhibits the measured activity by half. Lower therefore signals higher potency.

For 69 molecules, IC50 results are on record in the Kinase Knowledgebase extract (Sharma et al. 2016).

The target in this assay is CDK2 (human) (UniProt P24941). As to the kind of experiment: Enzyme Assay.
`CCN(CC)C(=O)c1cccc(NC(=O)Nc2csc(-c3ccccc3)n2)n1` had a concentration for half-maximal inhibition (IC50) of less than 0.5 µM.

For the molecule `O=C(Nc1csc(-c2ccncc2)n1)Nc1ncccn1`, the IC50 is less than 0.5 µM.

For the molecule `CN1CC=C(c2cccc(NC(=O)Nc3csc(-c4ccncc4)n3)n2)CC1`, the IC50 is less than 0.5 µM. `CC(C)N(Cc1cccc(NC(=O)Nc2csc(Br)n2)n1)C(=O)OC(C)(C)C`: the IC50 is less than 0.5 µM. Then `O=C(Nc1cccc(NCCCO)n1)Nc1csc(-c2ccncc2)n1`, with less than 0.5 µM; and `O=C(Nc1cccc(OCCC2CCNCC2)n1)Nc1csc(-c2cccs2)n1`, with less than 0.5 µM. Then `CN1CCC[C@H]1COc1cccc(NC(=O)Nc2csc(-c3ccccc3)n2)n1`, with less than 0.5 µM; and `C[C@H]1CCCN(Cc2cccc(NC(=O)Nc3csc(-c4ccncc4)n3)n2)C1`, with less than 0.5 µM; and `O=C(Nc1cc(C(=O)N2CCCCC2)ccn1)Nc1csc(Br)n1`, with less than 0.5 µM. `O=C(Nc1cccc(C2=CCNCC2)n1)Nc1csc(-c2ccncc2)n1` displayed an IC50 of less than 0.5 µM. Under `CN1CC(COc2cccc(NC(=O)Nc3csc(-c4ccccc4)n3)n2)C1` stands less than 0.5 µM. With `O=C(Nc1cccc(OCC2CCNCC2)n1)Nc1csc(Br)n1`, the IC50 was less than 0.5 µM. Under `O=C(Nc1cccc(OCCC2CCNCC2)n1)Nc1csc(-c2ccccc2)n1` stands less than 0.5 µM; under `O=C(Nc1cccc(OCC2CCNCC2)n1)Nc1csc(Cl)n1`, less than 0.5 µM. Under `CC(c1cccc(NC(=O)Nc2csc(-c3ccncc3)n2)n1)N1CCCCC1` (centres undefined) stands less than 0.5 µM; under `CC(C)(C)c1cnc(-c2nc(NC(=O)Nc3cccc(OCCC4CCNCC4)n3)cs2)o1`, less than 0.5 µM; under `CC(C)NCc1cccc(NC(=O)Nc2csc(-c3ncc(C(C)(C)C)o3)n2)n1`, less than 0.5 µM.

With `O=C(Nc1cccc(Oc2ccc(CN3CCCC3)cc2)n1)Nc1csc(-c2ccccc2)n1`, the concentration for half-maximal inhibition (IC50) was less than 0.5 µM. Under `CC(C)(C)OC(=O)N1CC(COc2cccc(NC(=O)Nc3csc(-c4ccccc4)n3)n2)C1` stands less than 0.5 µM; under `Cc1cc(C(=O)N2CCC(COc3cccc(NC(=O)Nc4csc(-c5ccncc5)n4)n3)C2)n(C(C)(C)C)n1` (centres undefined), less than 0.5 µM; under `C[C@@H]1CCCN(Cc2cccc(NC(=O)Nc3csc(-c4ccncc4)n3)n2)C1`, less than 0.5 µM. Under `CN1CCC(c2cccc(NC(=O)Nc3csc(-c4ccncc4)n3)n2)CC1` stands less than 0.5 µM; under `O=C(Nc1cccc(NCC2CCCCN2)n1)Nc1csc(-c2ccncc2)n1` (centres undefined), less than 0.5 µM; under `CN1CCC(c2cccc(NC(=O)Nc3csc(-c4ccccc4)n3)n2)CC1`, less than 0.5 µM. Take `CC(C)(C)OC(=O)N1CCC[C@@H]1COc1cccc(NC(=O)Nc2csc(-c3ccncc3)n2)n1`: the IC50 is less than 0.5 µM. Under `CN1CCC[C@H]1COc1cccc(NC(=O)Nc2csc(CS(=O)(=O)c3cccs3)n2)n1` stands less than 0.5 µM. In turn, `CN1CCC(COc2cccc(NC(=O)Nc3csc(-c4ccccc4)n3)n2)CC1` showed an IC50 of less than 0.5 µM. Under `CCN(CC)Cc1ccnc(NC(=O)Nc2csc(-c3ccncc3)n2)c1` stands less than 0.5 µM; under `O=C(Nc1cccc(OCCC2CCNCC2)n1)Nc1csc(Br)n1`, less than 0.5 µM; under `O=C(Nc1cccc(OCC2CCNCC2)n1)Nc1csc(-c2ccccc2)n1`, less than 0.5 µM. The molecule `O=C(Nc1cccc(OCCC2CCNCC2)n1)Nc1csc(Cl)n1` showed an IC50 of less than 0.5 µM. With `O=C(Nc1cccc(Oc2ccc(CN3CCCC3)cc2)n1)Nc1csc(Br)n1`, the IC50 was less than 0.5 µM. Under `O=C(Nc1cccc(OCC2CCCO2)n1)Nc1csc(-c2ccncc2)n1` (centres undefined) stands less than 0.5 µM; under `O=C(Nc1cccc(OCC2CCOC2)n1)Nc1csc(-c2ccncc2)n1` (centres undefined), less than 0.5 µM; under `O=C(Nc1cccc(OCC2CCNC2)n1)Nc1csc(-c2ccncc2)n1` (centres undefined), less than 0.5 µM.

Regarding `O=C(Nc1cc(C(=O)N2CCCCC2)ccn1)Nc1csc(-c2ccccc2)n1`, the IC50 was less than 0.5 µM. Then `CCN(CC)C(=O)c1ccnc(NC(=O)Nc2csc(-c3ccncc3)n2)c1`, with less than 0.5 µM. Under `O=C(Nc1cccc(OCC2CNC2)n1)Nc1csc(Br)n1` stands less than 0.5 µM; under `O=C(Nc1cccc(OCC2CNC2)n1)Nc1csc(-c2ccccc2)n1`, less than 0.5 µM; under `CN1CCC[C@@H]1COc1cccc(NC(=O)Nc2csc(-c3ccncc3)n2)n1`, less than 0.5 µM.

Regarding `O=C(Nc1cc(C(=O)N2CCCCC2)ccn1)Nc1csc(-c2ccncc2)n1`, the IC50 was less than 0.5 µM. Then `O=C(Nc1cccc(OCCC2CCNCC2)n1)Nc1csc(C2CC2)n1`, with less than 0.5 µM. Under `CC(C)(C)OC(=O)N1CCC(COc2cccc(NC(=O)Nc3csc(-c4ccncc4)n3)n2)C1` (centres undefined) stands less than 0.5 µM; under `CC1CCCN(Cc2cccc(NC(=O)Nc3csc(Br)n3)n2)C1` (centres undefined), less than 0.5 µM; under `CN1CC=C(c2cccc(NC(=O)Nc3csc(Br)n3)n2)CC1`, less than 0.5 µM.

Molecule `O=C(Nc1cc(CN2CCCCC2)ccn1)Nc1csc(-c2ccccc2)n1` returned an IC50 of less than 0.5 µM. Then `CC(C)(C)OC(=O)N1CCC(CCOc2cccc(NC(=O)Nc3csc(-c4ccccc4)n3)n2)CC1`, with less than 0.5 µM; and `O=C(Nc1cccc(OCC2CNC2)n1)Nc1csc(Cl)n1`, with less than 0.5 µM; and `O=C(Nc1cccc(CN2CCCC2)n1)Nc1csc(-c2ccccc2)n1`, with less than 0.5 µM. Molecule `CC1CCCN(Cc2cccc(NC(=O)Nc3csc(-c4ccccc4)n3)n2)C1` (centres undefined) showed an IC50 of less than 0.5 µM. The molecule `CCN1CCN(c2cccc(NC(=O)Nc3csc(-c4ccccc4)n3)n2)CC1` had an IC50 of less than 0.5 µM. `O=C(Nc1cccc(NCCCO)n1)Nc1csc(Br)n1`: the IC50 was less than 0.5 µM. Under `COc1cc(-c2nc(NC(=O)Nc3cccc(CN4CCCCC4)n3)cs2)ccn1` stands less than 0.5 µM; under `CC(C)NCc1cccc(NC(=O)Nc2csc(Cl)n2)n1`, less than 0.5 µM. Under `CC(C)(C)OC(=O)N1CCC(COc2cccc(NC(=O)Nc3csc(-c4ccncc4)n3)n2)CC1` stands less than 0.5 µM; under `CC(C)NCc1cccc(NC(=O)Nc2csc(-c3ccccc3)n2)n1`, less than 0.5 µM. `Cn1cccc1C(=O)N1CCC(COc2cccc(NC(=O)Nc3csc(-c4ccncc4)n3)n2)C1` (centres undefined) showed a half-maximal inhibitory concentration (IC50) of less than 0.5 µM. Consider `CC1CCCC(C)N1Cc1cccc(NC(=O)Nc2csc(-c3ccncc3)n2)n1` (centres undefined), for which the IC50 is less than 0.5 µM. Take `CC(C)N(Cc1cccc(NC(=O)Nc2csc(Cl)n2)n1)C(=O)OC(C)(C)C`: the IC50 is less than 0.5 µM. In the case of `CN1CCC(COc2cccc(NC(=O)Nc3csc(-c4ccncc4)n3)n2)CC1`, the IC50 was less than 0.5 µM.

Molecule `CN1CCC[C@H]1COc1cccc(NC(=O)Nc2csc(-c3cccc(S(N)(=O)=O)c3)n2)n1` had an IC50 of less than 0.5 µM. On to `O=C(Nc1cccc(CN2CCCCC2)n1)Nc1csc(Cl)n1`, for which the IC50 is less than 0.5 µM. Under `CN1CC=C(c2cccc(NC(=O)Nc3csc(-c4ccccc4)n3)n2)CC1` stands less than 0.5 µM; under `CN1CC(COc2cccc(NC(=O)Nc3csc(-c4ccncc4)n3)n2)C1`, less than 0.5 µM. Turning to `O=C(Nc1cccc(OCC2CCNCC2)n1)Nc1csc(-c2ccncc2)n1`, the IC50 was less than 0.5 µM. Under `CC(C)(C)OC(=O)N1CCCCC1CNc1cccc(NC(=O)Nc2csc(-c3ccncc3)n2)n1` (centres undefined) stands less than 0.5 µM. Turning to `O=C(Nc1cccc(N2CCN(c3ncccn3)CC2)n1)Nc1csc(-c2ccccc2)n1`, the IC50 was less than 0.5 µM. Turning to `CC1CCCN(Cc2cccc(NC(=O)Nc3csc(Cl)n3)n2)C1` (centres undefined), the IC50 was less than 0.5 µM. Take `CC(C)(C)OC(=O)N1CC=C(c2cccc(NC(=O)Nc3csc(-c4ccncc4)n3)n2)CC1`: the IC50 is less than 0.5 µM.
